In publication PMC4019466, “RNA Mimicry by the Fap7 Adenylate Kinase in Ribosome Biogenesis” (PLoS Biology, 2014):

Columns and labels:
aFap7–aRps14 complex [1] = molecular target: T1, aFap7–aRps14 complex (Pyrococcus abyssi, UniProt Q9UZK4); test: X-ray crystal structure, […] Å; settings: Mg2+; ATP binding pocket of aFap7; pH 8.5, 18 °C
T1 construct: gene PYRAB11420; co-expressed from polycistronic pET21, N-terminal 6xHis on Fap7, E. coli Rosetta 2DE3; 1:1 complex, calculated mass 36,272; with Small ribosomal subunit protein uS11 (30S ribosomal protein S11)

yFap7 [2] = molecular target: T2, yFap7 (Saccharomyces cerevisiae, UniProt Q12055); test: native gel electrophoresis with radiolabelled ATP; format: binding; settings: 30 µM yFap7, 0.1 mM [γ-32P]ATP, AMP-PNP 0.1 or 1 mM
T2 construct: gene FAP7; full-length, His-tagged, pRSF-DUET, expressed in E. coli Rosetta 2DE3; calculated monomer mass 23,916 (SAXS sample)
T2 sequence (Q12055 1-197): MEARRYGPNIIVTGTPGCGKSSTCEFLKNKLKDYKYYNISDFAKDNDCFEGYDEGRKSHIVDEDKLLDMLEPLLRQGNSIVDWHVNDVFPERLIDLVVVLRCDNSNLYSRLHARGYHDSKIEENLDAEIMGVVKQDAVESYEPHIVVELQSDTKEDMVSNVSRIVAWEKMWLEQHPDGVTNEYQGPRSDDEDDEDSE

yFap7 [3] = molecular target: T2, yFap7; test: adenylate kinase assay coupled to pyruvate kinase / lactate dehydrogenase, NADH at […] nm; format: biochemical; settings: 5 mM MgCl2, pH 7.5, 30 °C; co-substrate ATP
aFap7–aRps14 complex [4] = molecular target: T1, aFap7–aRps14 complex; test: X-ray crystal structure, […] Å; settings: Mg2+; ATP binding pocket of aFap7; pH 8.5, 18 °C; two of four aFap7 copies hold ATP, two ADP
yFap7–yRps14 complex = molecular target: T3, yFap7–yRps14 complex (Saccharomyces cerevisiae, UniProt Q12055); test: adenylate kinase assay coupled to pyruvate kinase / lactate dehydrogenase, NADH at […] nm; format: biochemical; settings: 0.3 mM AMP, 5 mM MgCl2, pH 7.5, 30 °C; preformed complex
T3 construct: gene FAP7; co-expressed from polycistronic pET21, N-terminal 6xHis on Fap7, E. coli Rosetta 2DE3; 1:1 complex, calculated mass 38,447; with Small ribosomal subunit protein uS11 (40S ribosomal protein S14)

MBP-yRps14 [5] = molecular target: T4, MBP-yRps14 (Saccharomyces cerevisiae, UniProt P06367 1-137); test: filter binding; 300 mM KCl, 5 mM Mg2+, HEPES pH 8.0; Filter binding: 30 mM Tris-HCl pH 8.0, 150 mM KCl, 6 mM MgCl2, 60 ug/ml E. coli tRNA, 20 C, 15 min, 10 fmol RNA (Fig S4D: 20 mM HEPES pH 8.0, 300 mM KCl, 5 mM MgCl2, 20 C); pull-down: IP buffer (300 mM KCl, 50 mM Hepes pH 7.5, 0.5 mM EDTA, 1 mM DTT, 10% glycerol as given for bead preparation), 5 mM MgCl2 where stated; settings: protein: recombinant; tags: MBP (pETM41; His-tag purification); (radioactively labeled); hairpin
MBP-yRps14 [6] = molecular target: T4, MBP-yRps14; test: filter binding; 6 mM Mg2+, 150 mM KCl, E. coli tRNA 60 ug/ml; Filter binding: 30 mM Tris-HCl pH 8.0, 150 mM KCl, 6 mM MgCl2, 60 ug/ml E. coli tRNA, 20 C, 15 min, 10 fmol RNA (Fig S4D: 20 mM HEPES pH 8.0, 300 mM KCl, 5 mM MgCl2, 20 C); pull-down: IP buffer (300 mM KCl, 50 mM Hepes pH 7.5, 0.5 mM EDTA, 1 mM DTT, 10% glycerol as given for bead preparation), 5 mM MgCl2 where stated; settings: protein: recombinant; tags: MBP (pETM41; His-tag purification); (radioactively labeled); hairpin
yFap7 [7] = molecular target: T5, yFap7 (Saccharomyces cerevisiae, UniProt Q12055 1-197); test: filter binding; up to 3.6 uM protein; 6 mM Mg2+, 150 mM KCl; Filter binding: 30 mM Tris-HCl pH 8.0, 150 mM KCl, 6 mM MgCl2, 60 ug/ml E. coli tRNA, 20 C, 15 min, 10 fmol RNA (Fig S4D: 20 mM HEPES pH 8.0, 300 mM KCl, 5 mM MgCl2, 20 C); pull-down: IP buffer (300 mM KCl, 50 mM Hepes pH 7.5, 0.5 mM EDTA, 1 mM DTT, 10% glycerol as given for bead preparation), 5 mM MgCl2 where stated; settings: protein: recombinant; tags: His; (radioactively labeled); hairpin
T5 sequence: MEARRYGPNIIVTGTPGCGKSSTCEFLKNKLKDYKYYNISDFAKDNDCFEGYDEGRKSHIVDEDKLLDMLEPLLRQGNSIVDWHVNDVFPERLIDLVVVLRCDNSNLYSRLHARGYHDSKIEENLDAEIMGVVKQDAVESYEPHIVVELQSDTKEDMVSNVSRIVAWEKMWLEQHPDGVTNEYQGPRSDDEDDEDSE

purified protein = substrate: Nc1ncnc2c1ncn2[C@@H]1O[C@H](COP(=O)(O)OP(=O)(O)OP(=O)(O)O)[C@@H](O)[C@H]1O; test: purified protein; format: biochemical, Saccharomyces cerevisiae; settings: 0.3 mM AMP, 5 mM MgCl2, 60 mM KCl, 100 mM Tris-HCl pH 7.5, 30 °C, ATP 0.01–1 mM

Q: With Nc1ncnc2c1ncn2[C@@H]1O[C@H](COP(=O)(O)OP(=O)(O)O)[C@@H](O)[C@H]1O [ADP] as the molecule, how does the “X-ray crystal structure, 2.12 Å” value (aFap7–aRps14 complex [1]) read?
A: 4cwn and 4cw7 for the ADP- and ATP-bound structures

Q: Nc1ncnc2c1ncn2[C@@H]1O[C@H](COP(=O)(O)OP(=O)(O)NP(=O)(O)O)[C@@H](O)[C@H]1O [AMPPNP] was tested. Which “native gel electrophoresis with radiolabelled ATP” value (yFap7 [2]) did it give?
A: Fap7 binds AMPPNP and ATP−Mg with the same (AMPPNP) or a slightly lower

Q: For Nc1ncnc2c1ncn2[C@@H]1O[C@H](COP(=O)(O)O)[C@@H](O)[C@H]1O [AMP], which “adenylate kinase assay coupled to pyruvate kinase / lactate dehydrogenase, NADH” value (yFap7 [3]) is on record?
A: the AK activity of yFap7 with respect to AMP

Q: Nc1ncnc2c1ncn2[C@@H]1O[C@H](COP(=O)(O)OP(=O)(O)OP(=O)(O)O)[C@@H](O)[C@H]1O [ATP] was tested. Which “X-ray crystal structure, 2.45 Å” value (aFap7–aRps14 complex [4]) did it give?
A: In the ATP-bound crystal form, two copies of aFap7 are bound by ATP

Q: And the “adenylate kinase assay coupled to pyruvate kinase / lactate dehydrogenase, NADH” value (yFap7–yRps14 complex)?
A: yFap7–yRps14 complex showed almost complete inhibition of the Fap7 AK activity

Q: GGGAGUAUUCAAUUGUCAGAGGUGAAAUUCUUGGAUUUAUUGAAGAGU (structured_RNA) [Helix 23 of 18S rRNA (H23)] was tested. Which Kd (MBP-yRps14 [5]) did it give?
A: 34.9 ± 0.95 µM

Q: And the Kd (MBP-yRps14 [6])?
A: 1500 ± 150 nM

Q: Does GGGAGUAUUCAAUUGUCAGAGGUGAAAUUCUUGGAUUUAUUGAAGAGU (structured_RNA) [Helix 23 of 18S rRNA (H23)] bind (yFap7 [7])?
A: no binding

B1: yFap7 (Saccharomyces cerevisiae S288C) (protein)
chain: MEARRYGPNIIVTGTPGCGKSSTCEFLKNKLKDYKYYNISDFAKDNDCFEGYDEGRKSHIVDEDKLLDMLEPLLRQGNSIVDWHVNDVFPERLIDLVVVLRCDNSNLYSRLHARGYHDSKIEENLDAEIMGVVKQDAVESYEPHIVVELQSDTKEDMVSNVSRIVAWEKMWLEQHPDGVTNEYQGPRSDDEDDEDSE
notes: full-length, His-tagged, pRSF-DUET, expressed in E. coli Rosetta 2DE3; calculated monomer mass 23,916 (SAXS sample)
Q: With B1 as the molecule, how does the Km (purified protein) read?
A: 52 µM

Q: And the kcat (purified protein)?
A: 0.00612 s⁻¹
